Holding throughout (test): relative viability (nuclei count vs DMSO), 5 days (fraction); higher = more cells survive
Compound in test [1]: COc1cc(Nc2c(C#N)cnc3cc(OCCCN4CCN(C)CC4)c(OC)cc23)c(Cl)cc1Cl [Bosutinib] + Cc1cc(Nc2cc(N3CCN(C)CC3)nc(Sc3ccc(NC(=O)C4CC4)cc3)n2)n[nH]1 [Tozasertib] (partner 0.1 µM)
An outline of the steps:
(§1)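 Nuclei were stained with Hoechst during a one-step fixation (final 0.05% Triton X-100, 1% formaldehyde, 1 ug/ml Hoechst) carried out 5 days after dosing, then counted on 4× images. The cells, lung cancer lines in 1536-well plates, had been dosed by pin tool the day after seeding with one drug alone or a fixed anchor-drug dose plus five library-drug doses (not always all listed) in √10 steps. Relative viability is the nuclei count in treated wells divided by that in vehicle wells, and each value is the median of duplicate plates.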

Compound in test [2]: COc1cc(Nc2c(C#N)cnc3cc(OCCCN4CCN(C)CC4)c(OC)cc23)c(Cl)cc1Cl [Bosutinib] + CC1(C)CCC(c2ccc(Cl)cc2)=C(CN2CCN(c3ccc(C(=O)NS(=O)(=O)c4ccc(N[C@H](CCN5CCOCC5)CSc5ccccc5)c(S(=O)(=O)C(F)(F)F)c4)cc3)CC2)C1 [Navitoclax] (partner 0.5 µM)
An outline of the steps: as §1

Compound in test [3]: COc1cc(Nc2c(C#N)cnc3cc(OCCCN4CCN(C)CC4)c(OC)cc23)c(Cl)cc1Cl [Bosutinib] + COc1cccc2cc(-c3nc([C@H]4CC[C@H](C(=O)O)CC4)n4ncnc(N)c34)[nH]c12 [OSI-027] (partner 0.5 µM)
An outline of the steps: as §1

Compound in test [4]: COc1cc(Nc2c(C#N)cnc3cc(OCCCN4CCN(C)CC4)c(OC)cc23)c(Cl)cc1Cl [Bosutinib] + COc1cc2c(Oc3ccc(NC(=O)C4(C(=O)Nc5ccc(F)cc5)CC4)cc3F)ccnc2cc1OCCCN1CCOCC1 [Foretinib] (partner 0.25 µM)
The procedure, abridged: as §1

Compound in test [5]: COc1cc(Nc2c(C#N)cnc3cc(OCCCN4CCN(C)CC4)c(OC)cc23)c(Cl)cc1Cl [Bosutinib] + Nc1nc2[nH]cc(CCc3ccc(C(=O)N[C@@H](CCC(=O)O)C(=O)O)cc3)c2c(=O)[nH]1 [Pemetrexed] (partner 0.2 µM)
An outline of the steps:
as §1

As to LXF-289, the relative viability in test [1] (first compound 0.01 µM) was 0.183; in test [1] (first compound 0.03162 µM), 0.191; in test [1] (first compound 0.1 µM) it was 0.238; in test [1] (first compound 1 µM), 0.179; in test [2] (first compound 0.01 µM), 0.938; in test [2] (first compound 0.03162 µM) it was 0.945. The relative viability is 0.911 in test [2] (first compound 0.1 µM); 0.966 in test [2] (first compound 1 µM); 0.765 in test [3] (first compound 0.01 µM); 0.849 in test [3] (first compound 0.03162 µM); 0.823 in test [3] (first compound 0.1 µM); 0.898 in test [3] (first compound 1 µM). The relative viability was 0.926 in test [4] (first compound 0.01 µM); 1 in test [4] (first compound 0.03162 µM); 0.979 in test [4] (first compound 0.1 µM); 0.913 in test [4] (first compound 1 µM); 0.908 in test [5] (first compound 0.01 µM); 1.04 in test [5] (first compound 0.03162 µM). Besides, the relative viability in test [5] (first compound 0.1 µM) is 0.985; in test [5] (first compound 1 µM), 0.88.
As for NCI-H23, the relative viability stood at 0.368 in test [1] (first compound 0.01 µM); 0.345 in test [1] (first compound 0.03162 µM); 0.404 in test [1] (first compound 0.1 µM); 0.364 in test [1] (first compound 1 µM); 0.904 in test [2] (first compound 0.01 µM); 0.742 in test [2] (first compound 0.03162 µM). The relative viability in test [2] (first compound 0.1 µM) was 0.869; in test [2] (first compound 1 µM) it was 0.764; in test [3] (first compound 0.01 µM), 0.583; in test [3] (first compound 0.03162 µM), 0.605; in test [3] (first compound 0.1 µM) it was 0.601; in test [3] (first compound 1 µM), 0.533. The relative viability amounted to 0.939 in test [4] (first compound 0.01 µM); 1.03 in test [4] (first compound 0.03162 µM); 0.979 in test [4] (first compound 0.1 µM); 0.723 in test [4] (first compound 1 µM); 0.673 in test [5] (first compound 0.01 µM); 0.644 in test [5] (first compound 0.03162 µM). Besides, the relative viability in test [5] (first compound 0.1 µM) was determined as 0.732; in test [5] (first compound 1 µM), 0.609.
For NCI-H322M, the relative viability in test [1] (first compound 0.01 µM) worked out at 0.472; in test [1] (first compound 0.03162 µM), 0.46; in test [1] (first compound 0.1 µM), 0.497; in test [1] (first compound 1 µM), 0.315; in test [2] (first compound 0.01 µM), 1.12; in test [2] (first compound 0.03162 µM) it was 1.25. For the same cell line, the relative viability was determined as 1.28 in test [2] (first compound 0.1 µM); 1.2 in test [2] (first compound 1 µM); 0.531 in test [3] (first compound 0.01 µM); 0.566 in test [3] (first compound 0.03162 µM); 0.549 in test [3] (first compound 0.1 µM); 0.422 in test [3] (first compound 1 µM). Besides, the relative viability in test [4] (first compound 0.01 µM) is 1.04; in test [4] (first compound 0.03162 µM), 0.867; in test [4] (first compound 0.1 µM), 0.881; in test [4] (first compound 1 µM), 0.414; in test [5] (first compound 0.01 µM) it was 0.579; in test [5] (first compound 0.03162 µM), 0.594. Besides, the relative viability in test [5] (first compound 0.1 µM) stood at 0.6; in test [5] (first compound 1 µM), 0.521.
For NCI-H441, the relative viability in test [1] (first compound 0.01 µM) amounted to 0.673; in test [1] (first compound 0.03162 µM), 0.589; in test [1] (first compound 0.1 µM), 0.599; in test [1] (first compound 1 µM) it was 0.823; in test [2] (first compound 0.01 µM), 0.589; in test [2] (first compound 0.03162 µM) it was 0.599. For the same cell line, the relative viability in test [2] (first compound 0.1 µM) is 0.411; in test [2] (first compound 1 µM), 0.518; in test [3] (first compound 0.01 µM) it was 0.622; in test [3] (first compound 0.03162 µM), 0.71; in test [3] (first compound 0.1 µM) it was 0.719; in test [3] (first compound 1 µM), 0.628. Moreover, the relative viability in test [4] (first compound 0.01 µM) stood at 1.03; in test [4] (first compound 0.03162 µM) it was 1.21; in test [4] (first compound 0.1 µM), 1.22; in test [4] (first compound 1 µM) it was 1.25; in test [5] (first compound 0.01 µM) it was 0.242; in test [5] (first compound 0.03162 µM), 0.272. Moreover, the relative viability in test [5] (first compound 0.1 µM) was 0.264; in test [5] (first compound 1 µM), 0.251.
Take NCI-H460: the relative viability worked out at 0.555 in test [1] (first compound 0.01 µM); 0.545 in test [1] (first compound 0.03162 µM); 0.479 in test [1] (first compound 0.1 µM); 0.112 in test [1] (first compound 1 µM); 1.09 in test [2] (first compound 0.01 µM); 1.11 in test [2] (first compound 0.03162 µM). In addition, the relative viability in test [2] (first compound 0.1 µM) is 1.02; in test [2] (first compound 1 µM) it was 0.683; in test [3] (first compound 0.01 µM) it was 0.803; in test [3] (first compound 0.03162 µM), 0.631; in test [3] (first compound 0.1 µM), 0.7; in test [3] (first compound 1 µM), 0.603. Also, the relative viability in test [4] (first compound 0.01 µM) stood at 1.01; in test [4] (first compound 0.03162 µM), 1.03; in test [4] (first compound 0.1 µM), 1; in test [4] (first compound 1 µM) it was 0.855; in test [5] (first compound 0.01 µM), 0.0612; in test [5] (first compound 0.03162 µM), 0.0671. Further, the relative viability in test [5] (first compound 0.1 µM) was found to be 0.0657; in test [5] (first compound 1 µM), 0.073.
On to NCI-H520, for which the relative viability in test [1] (first compound 0.01 µM) came to 0.407; in test [1] (first compound 0.03162 µM), 0.446; in test [1] (first compound 0.1 µM) it was 0.39; in test [1] (first compound 1 µM), 0.347; in test [2] (first compound 0.01 µM), 1.33; in test [2] (first compound 0.03162 µM) it was 0.988. Moreover, the relative viability in test [2] (first compound 0.1 µM) came to 1.05; in test [2] (first compound 1 µM), 0.964; in test [3] (first compound 0.01 µM) it was 0.293; in test [3] (first compound 0.03162 µM), 0.257; in test [3] (first compound 0.1 µM), 0.235; in test [3] (first compound 1 µM), 0.196. Also, the relative viability amounted to 0.929 in test [4] (first compound 0.01 µM); 0.857 in test [4] (first compound 0.03162 µM); 0.789 in test [4] (first compound 0.1 µM); 0.551 in test [4] (first compound 1 µM); 0.661 in test [5] (first compound 0.01 µM); 0.666 in test [5] (first compound 0.03162 µM). Further, the relative viability in test [5] (first compound 0.1 µM) is 0.627; in test [5] (first compound 1 µM), 0.605.
As for NCI-H596, the relative viability in test [1] (first compound 0.01 µM) was determined as 1.06; in test [1] (first compound 0.03162 µM) it was 0.828; in test [1] (first compound 0.1 µM) it was 0.893; in test [1] (first compound 1 µM) it was 0.788; in test [2] (first compound 0.01 µM), 1.06; in test [2] (first compound 0.03162 µM), 0.86. Further, the relative viability in test [2] (first compound 0.1 µM) is 1.18; in test [2] (first compound 1 µM), 0.785; in test [3] (first compound 0.01 µM), 0.743; in test [3] (first compound 0.03162 µM), 0.738; in test [3] (first compound 0.1 µM) it was 0.639; in test [3] (first compound 1 µM), 0.496. Besides, the relative viability in test [4] (first compound 0.01 µM) turned out to be 0.745; in test [4] (first compound 0.03162 µM), 0.857; in test [4] (first compound 0.1 µM), 0.721; in test [4] (first compound 1 µM), 0.855; in test [5] (first compound 0.01 µM), 0.576; in test [5] (first compound 0.03162 µM), 0.464. Besides, the relative viability in test [5] (first compound 0.1 µM) was 0.503; in test [5] (first compound 1 µM), 0.505.

For the origin of these results see the supplement of paper PMC10307832.
